From patent publication EP1282414B1, “FELBAMATE DERIVED COMPOUNDS FOR TREATING NEUROPATHIC PAIN” (University of Virginia Patent Foundation, priority 2000, dated 2001)

Assays:
[1] = system: pentylenetetrazol; test: Subcutaneous Metrazol seizure test (scMET), mice i.p.; format: in vivo, Carworth Farms No. 1 mice; settings: for ScMET, number of animals protected / total number of animals tested: mice i.p.
Description: (§1) The fluoro derivatives synthesized were submitted to the National Institute of Neurological Disorders and Stroke (NINDS) for evaluation in a standard panel of assays. Two convulsant tests (MES and scMET), and a toxicity screen (rotorod in mice, positional sense and gait in rats) were employed for evaluating the compounds activity as neuroprotecting agents. These testing procedures are described in detail in Molecular and Cellular Targets for Anti-epileptic Drugs, eds. G. Avanzini, G. Regesta, P. Tanganelli, M. Avoli, 1997, John Libbey & Company Ltd, pp 191-198. The felbamate derivatives were evaluated for anticonvulsant activity following intraperitoneal (i.p.) administration in mice and oral administration in rats.
This is a model that primarily identifies compounds that raise seizure threshold. With some minor exceptions, the pharmacological profile of the scMET seizure model is consistent with the human condition. The scMET test utilizes a dose of pentylenetetrazol (85 mg/kg in Carworth Farms No. 1 mice and 70 mg/kg in Sprague-Dawley rats) that induces clonic seizures lasting for a period of at least five seconds in 97 % (CD97) of animals tested. At the anticipated time of testing the convulsant is administered subcutaneously. The test compound is administered intraperitoneally in mice and orally in rats. Animals are observed over a 30 minute period. Absence of clonic spasms in the observed time period indicates a compound's ability to abolish the effect of pentylenetetrazol on seizure threshold.
For the MES and scMET tests the data is presented in the form of the number of animals protected by the administered compound / total number of animals tested. […] Qualitative data was obtained for fluoro felbamate 12 (Tables 1 and 2A), fluoro monocarbamate felbamate 13 (Tables 1 and 2B), and fluorodioxo 16 (Tables 1 and 2C) and for cyclic felbamate 21 (Tables 5 and 6B) and cyclic monocarbamate 22 (Tables 5 and 6A). More extensive quantitative data was also obtained for fluoro felbamate 12 in mice (Table 3) and rats (Table 4).

[2] = Minimal neurotoxicity (TOX), positional sense and gait and stance tests, rats p.o.; format: in vivo; settings: in vivo, po; rat
Description: as §1, with “G. Avanzini, G. Regesta, P. Tanganelli, M. Avoli, 1997, John Libbey & Company Ltd, pp 191-198.” left out
(§2) Rats are examined for behavioral toxicity by the positional sense test and a gait and stance test. […] In the gait and stance test, neurotoxicity is indicated by a circular or zigzag gait, ataxia, abnormal spread of the legs, abnormal posture, tremor hyperactivity, lack of exploratory behavior, somnolence, stupor or catalepsy. […]

[3] = system: rats; test: as above; format: in vivo; settings: for TOX, number of animals exhibiting toxic effects / total number of animals tested: rat p.o., 30 mg/kg
Description: as §1, with “G. Avanzini, G. Regesta, P. Tanganelli, M. Avoli, 1997, John Libbey & Company Ltd, pp 191-198.” left out
as §2

[4] = system: MES-induced seizure spread; test: Maximal Electroshock Seizure (MES) test, mice oral; format: in vivo; settings: Mus musculus, oral administration
Procedure: The MES test is a model for generalized tonic-clonic seizures and is used to identify compounds which prevent seizure spread. The behavioral and electrographic seizures generated in this model are consistent with the human disorder. In the MES test, an electrical stimulus of 0.2 s in duration (50 mA in mice and 150 mA in rat at 60Hz) was delivered via corneal electrodes primed with an electrolyte solution containing an anesthetic agent. Mice were tested at 30 minutes and 4 hours following doses of 30, 100 and 300 mg/kg of test compound. Rats were tested at time intervals between 0.25 and 4 hours following a standard oral dose of 30 mg/kg. Abolition of the hindlimb tonic extensor component indicates the test compound's ability to inhibit MES-induced seizure spread.
Toxicity across time doe not occur until dosages of 300mg/kg. […] Quantitative results obtained for fluoro felbamate 12 in mice indicated a MES ED50 of approximately 20 mg/kg with a safety ratio of at least five (see Table 3). Results obtained for oral administration of fluoro felbamate 12 to rats indicated a MES ED50 of about 3 mg/kg with no toxicity at doses up to 500 mg/kg.

NC(=O)OCC(F)(COC(N)=O)c1ccccc1 [fluoro felbamate, 2-Fluoro-2-phenyl-1,3-propanediol dicarbamate]
ED50 ([1]; Mus musculus, ip, read-out: ScMET ED50): > 160 mg/kg | ScMET, number of animals protected / total number of animals tested ([1]; 30 mg/kg, 0.5h): 0/1 | ScMET, number of animals protected / total number of animals tested ([1]; 30 mg/kg, 4.0h): 0/1 | ScMET, number of animals protected / total number of animals tested ([1]; 100 mg/kg, 0.5h): 0/1 | ScMET, number of animals protected / total number of animals tested ([1]; 100 mg/kg, 4.0h): 0/1 | ScMET, number of animals protected / total number of animals tested ([1]; 300 mg/kg, 0.5h): 0/1 | ScMET, number of animals protected / total number of animals tested ([1]; 300 mg/kg, 4.0h): 0/1 | ED50 [2]: > 500 mg/kg | TOX, number of animals exhibiting toxic effects / total number of animals tested ([3]; 0.25h): 0/4 | TOX, number of animals exhibiting toxic effects / total number of animals tested ([3]; 0.5h): 0/4 | TOX, number of animals exhibiting toxic effects / total number of animals tested ([3]; 1.0h): 0/4 | TOX, number of animals exhibiting toxic effects / total number of animals tested ([3]; 2.0h): 0/4 | TOX, number of animals exhibiting toxic effects / total number of animals tested ([3]; 4.0h): 1/4 | no toxicity at doses up to ([3]; rats, oral administration): up to 500 mg/kg | ED50 [4]: ~27 mg/kg
